Laboratory results from patent US10555989B2, “Treatment of learning disabilities and other neurological disorders with SK channel inhibitor(s)” (priority 2015, dated 2020).

What was measured:
[1] = test system: CD-1 mice
Description: Pregnant mice CD-1 mice purchased from Charles River Company and bred under a light-dark cycle at a constant temperature were injected i.p. with 2 g/kg with either PBS (control) or ethanol (EtOH) thus exposing fetal mice in utero to PBS or EtOH. Thirty days after mice were born (day P30) motor skills of the control and EtOH-treated groups were compared using Rotarod test. The treatment timeline for the mice is shown in FIG. 1A and the Rotarod test is depicted by FIG. 1B.
For assessment of motor learning behavior, mice (P30) were carried out using an accelerating Rotarod apparatus (TSE Instruments) over 3 repeated trials (5 minutes per trial)/day for 2 consecutive days before testing phase. The Rotarod testing involves placing the mice on a rotating bar and determining the length of time that they can retain their balance as the rate of rotation is increased (max 80 rpm, for 5 min). On the day of testing, mice were kept in their home cages and acclimated to the testing room for at least 15 min. 2 min acclimation session at 2 rpm one time prior to the test phase was performed. Testing phase consisted of 3 trials per day separated by 30 min each for 2 consecutive days (total 6 trials). Each trail was terminated when mouse fell off or reached maximum 5 min (maximum speed). During the trials, mice that moved 180° (same direction of rotation) were gently turned around, face forward, to opposite direction of rotation. The latency to fall from a rotating rod was scored automatically with infrared sensors in a Rotamex 5 rotarod (Columbus Inst.; Columbus, Ohio).

[2] = test system: heat shock factor 1 (Hsf1); conditions: alcohol regimen i.p. at E16.5 and E17.5
Description: In utero electroporation was carried out as described [1-3]. Briefly, the plasmid for Flippase-FRT based reporter of heat shock factor 1 (Hsf1) activation was co-electroporated with EGFP-f plasmid (Addgene, 2 μg/μl each).
By using this method, the cells that had robust prenatal Hsf1 activation were labeled by RFP reporter.
The RFP reporter expression was induced upon Hsf1 activation in a subset of GFP-positive neurons. […] Pups were screened using an epifluorescence stereomicroscope at postnatal days (P1) that had GFP-positive cells in their primary motor cortex. Further experiments were performed on these mice i.e., single cell sampling, electrophysiology study, immunohistochemistry (IHC) and neurons morphology at P30.

[3] = test system: SK2 channels; conditions: cited from earlier work
[4] = test system: mice exposed to EtOH prenatally; test: Accelerating Rotarod motor learning before and after Tamapin injection (i.p.) in mice exposed to EtOH prenatally; type: in vivo, CD-1 mice
Description: Mice were tested using the Rotarod test described above on postnatal days 30, 31, 32 and 33 days as shown by the timeline in FIG. 5A. Thus, the mice were tested for the motor learning before and after the Tamapin injection (i.p.).

[5] = biological target: T1, KCNN2 (Mus musculus, UniProt P58390); test: Electrophysiology: tamapin-sensitive medium afterhyperpolarization (mAHP) in primary motor cortex slices; type: cell-based, mice; conditions: Tamapin 100 nM
T1 construct: Coronal slices containing primary motor cortex (300 μm) were prepared; from tissue; host or cells: acute coronal slices of primary motor cortex from P30 mice, layer II/III pyramidal neurons
T1 sequence (P58390 266-839): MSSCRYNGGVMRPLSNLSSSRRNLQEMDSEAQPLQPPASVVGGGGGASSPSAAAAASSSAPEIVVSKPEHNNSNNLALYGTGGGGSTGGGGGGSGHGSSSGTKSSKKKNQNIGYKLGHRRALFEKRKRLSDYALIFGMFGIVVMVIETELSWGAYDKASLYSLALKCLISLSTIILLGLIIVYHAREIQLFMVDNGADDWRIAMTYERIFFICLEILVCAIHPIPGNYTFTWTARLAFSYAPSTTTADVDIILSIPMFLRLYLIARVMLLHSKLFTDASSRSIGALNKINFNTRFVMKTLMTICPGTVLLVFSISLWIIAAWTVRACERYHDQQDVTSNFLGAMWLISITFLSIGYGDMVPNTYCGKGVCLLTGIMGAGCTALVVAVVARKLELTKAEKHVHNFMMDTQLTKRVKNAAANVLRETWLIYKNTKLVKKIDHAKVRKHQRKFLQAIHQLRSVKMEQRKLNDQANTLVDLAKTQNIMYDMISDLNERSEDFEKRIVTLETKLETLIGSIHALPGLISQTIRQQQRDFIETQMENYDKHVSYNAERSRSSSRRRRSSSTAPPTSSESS
Description: Electrophysiology: Coronal slices containing primary motor cortex (300 μm) were prepared as described above by using a vibrating blade microtome (Leica VT 1000S) from DNA (HSE-FLP0, CAG GFP and RFP FRT, 2 μg/μl each) electroporated mice (P30) brain. The recording chamber was perfused with oxygenated (95% O2/5% CO2) aCSF at 2 ml/min at room temperature. DNA electroporated primary motor cortex neurons were visualized through an infrared charge-coupled device (CCD) camera (C2741-79; Hamamatsu Photonics, Hamamatsu, Japan). The electrodes were filled with internal solution containing (in mM) 130 […], 10 KCl, 10 HEPES, 10 EGTA, 2 MgCl2, 2 Na2-ATP and 0.3 Na-GTP (pH 7.3; electrode resistances: 4-6 MΩ). Cells were recorded in the whole-cell voltage or current clamp mode with a holding potential of −60 mV using a patch-clamp amplifier (700B; Molecular Devices, Sunnyvale, Calif. USA). Series resistance was compensated. The output of the amplifier was digitized using an A/D converter board (Digidata 1322; Molecular Devices) with a sampling rate of 10 kHz, and recorded on a hard disk by data acquisition software (pCLAMP10; Molecular Devices). For the mAHP, cells were held at −60 mV under current clamp mode and action potentials were evoked through injecting positive current. LTP was induced electrically under voltage clamp mode by applying single 1-sec train (100 Hz, 100 μA, Isoflexm, A.M.P.I; CPI, Carl Pisaturo Standord University).
Example 4 KCNN2 Antagonist, Tamapin (100 nM), Affects the Medium Duration Afterhyperpolarization (mAHP) in Reporter-Positive Pyramidal Neurons in M1
(FIGS. 4A-4C, panels a4-c4) Left panels: Cumulative distributions of the amplitude of action potential and the mean amplitude of action potentials (insets)recorded from control (black)- and Tamapin (red)-stimulated neurons. Right panels: Firing frequencies, showing significant increase in RFP^+ neurons. *P=0.016 by Student's t-test.

Compound	learning and motor skills ([1]; exposure of fetal mice in utero vs control, summary of Example 1)	initial motor coordination (terminal speed at trial 1, FIG. 1D) ([1]; in utero EtOH vs PBS, P30, P=0.579)	learning rates (learning index, Rotarod, FIG. 1C) ([1]; in utero exposure, 2 g/kg i.p. to pregnant mice, P30, males and females, vs PBS)	mean Rotarod terminal speed of control mice relative to EtOH-treated mice (FIG. 1F) ([1]; trial 1 and trial 6)	effects in brain structure [2]	rank order of affinity for SK channels ([3]; functional property of native tamapin)	SK channel selectivity ([3]; known property)	initial motor coordination (FIG. 5C) ([4]; EtOH-exposed mice)	motor learning (latency to fall, FIG. 5B) ([4]; EtOH-exposed mice, trial 7-12, Tamapin i.p. vs vehicle, P=0.0001)	latency to fall at the first trial followed by injection (trial 7), vehicle vs Tamapin ([4]; PBS-exposed and EtOH-exposed groups, P=0.302 and 0.960)	initial motor coordination (FIG. 5F) ([4]; PBS-exposed mice)	effects on motor learning (FIG. 5G) ([4]; PBS-exposed mice, trial 7-12, P=0.596)	motor learning / learning rate (FIG. 5D) ([4]; Tamapin-injected EtOH-exposed mice, trial 7-12, P=0.015)	effects of fetal exposure to EtOH ([4]; summary of Example 5)	firing frequency ([5]; EtOH-exposed RFP+ neurons, P=0.016)	medium afterhyperpolarization (mAHP) ([5]; EtOH-exposed RFP+ pyramidal neurons, M1, P30 slices, P=0.009)	effects on mAHP and firing in RFP- neurons ([5]; RFP- neurons in PBS- or EtOH-exposed brains)
CCO [EtOH, ethanol]	negatively affects	not affected	decreased	significantly higher	did not induce any obvious effects												
AFCNLRRCELSCRSLGLLGKCIGEECKCVPY [Tamapin]						SK2 channel>SK3>SK1>SK4	selective blocker of SK2 channels	not affected	improved the motor learning	similar	not affected	No effects	rescued	significantly reversed	increased the firing frequency	reduced the mAHP	no significant effects
